Test results from patent US20260102340A1, “Therapeutic Formulation” (1000739373 Ontario Ltd., priority 2022, published 2026).
Values after ≈ are worked out from the molar mass of the structure shown. Values joined by “and” are separate entries in the source; they are usually repeats but may differ in a detail not shown here. Identical values can stand only once. Like-named read-outs stand apart in the source and are kept apart here.

Legend:
physchem [1] = conditions: organic solvent or mixture, Mean Drug Solubility (± standard deviation)
physchem [2] = conditions: organic solvent or mixture
[3] = 4.5 months
From the text: A plurality of metered dose inhalers (MDIs) were filled with either the first or second therapeutic formulation. MDIs were stored either upright (Up) or inverted (in). Each MDI comprised a valve and a canister.

[4] = HFA 134a
[5] = HFA 134a, Metering Valve 1908, 25° C., Up
[6] = HFA 134a, Metering Valve 1908, 40° C. (75% RH), Down
[7] = HFA 134a, Metering Valve 1908, 40° C. (75% RH), Up
[8] = HFA 134a, Metering Valve 1908, Presspart Plasma Coated 14 ml C128, 5° C., Up
[9] = HFA 134a, Metering valve 1904 (with dip tube 1906), 5° C., Up
[10] = HFA 134a, Metering valve 1904 (with dip tube 1906), 40° C. (75% RH), Down
[11] = HFA 134a, Metering valve 1904 (with dip tube 1906), 40° C. (75% RH), Up
[12] = HFA 152a, Metering Valve 1908, 5° C., Up
[13] = HFA 152a, Metering Valve 1908, 25° C., Up
[14] = HFA 152a, Metering Valve 1908, 40° C. (75% RH), Down
[15] = HFA 152a, Metering Valve 1908, 40° C. (75% RH), Up
[16] = HFA 152a, Metering valve 1904 (with dip tube 1906), 40° C. (75% RH), orientation not given
[17] = 0 %(w/w) ethanol, nicotine added 0.169 ± 0.009 %(w/w)
[18] = 14.8 %(w/w) ethanol, nicotine added 0.703 %(w/w)

CN1CCC[C@H]1c1cccnc1 [Nicotine, L-Nicotine]
Solubility in 50:50 mixtures of propellants compared with single propellants (50:50 mixtures of propellants): higher solubility than either propellant alone
Solubility, equivalent % by mass (HFA 152a): 0.56 % by mass
solubility (physchem [1]; 50:50 HFA 134a/HFA 152a): 0.0858 ± 0.0032 mg/mL (≈ 529 µM)
solubility (physchem [1]; 50:50 HFA 134a/HFO 1234ze): 0.0623 ± 0.0044 mg/mL (≈ 384 µM)
solubility (physchem [1]; HFA 134a): 0.0385 ± 0.0016 mg/mL (≈ 237 µM)
solubility (physchem [1]; HFA 152a): 0.0508 ± 0.0029 mg/mL (≈ 313 µM)
solubility (physchem [1]; HFA 227ea): 0.0198 ± 0.0049 mg/mL (≈ 122 µM)
solubility (physchem [1]; HFO 1234ze): 0.0415 ± 0.0008 mg/mL (≈ 256 µM)
solubility (physchem [2]): ≥ 0.01 mg/mL
Nicotine % of 5° C. [3, 5]: 98 % of 5 °C
Nicotine can content [3, 5]: 23922.695 µg and 23527.533 µg
Nicotine % of 5° C. [3, 6]: 98 % of 5 °C
Nicotine can content [3, 6]: 23663.281 µg
Nicotine % of 5° C. [3, 7]: 97 % of 5 °C
Nicotine can content [3, 7]: 22809.747 µg and 23785.869 µg
Nicotine % of 5° C. [3, 8]: 100 % of 5 °C
Nicotine can content [3, 8]: 24166.562 µg and 24126.474 µg
Nicotine % of 5° C. [3, 9]: 100 % of 5 °C
Nicotine can content [3, 9]: 23891.217 µg and 23628.856 µg
Nicotine % of 5° C. [3, 10]: 97 % of 5 °C
Nicotine can content [3, 10]: 23102.878 µg and 23079.598 µg
Nicotine % of 5° C. [3, 11]: 96 % of 5 °C
Nicotine can content [3, 11]: 22360.125 µg and 23044.004 µg
Nicotine % of 5° C. [3, 12]: 100 % of 5 °C
Nicotine can content [3, 12]: 31626.434 µg and 30855.835 µg
Nicotine % of 5° C. [3, 13]: 100 % of 5 °C
Nicotine can content [3, 13]: 31592.559 µg and 30786.35 µg
Nicotine % of 5° C. [3, 14]: 98 % of 5 °C
Nicotine can content [3, 14]: 30939.368 µg and 30153.5 µg
Nicotine % of 5° C. [3, 15]: 98 % of 5 °C
Nicotine can content [3, 15]: 30982.764 µg and 30318.689 µg
Nicotine % of 5° C. [3, 16]: 97 % of 5 °C
Nicotine can content [3, 16]: 30395.997 µg and 30048.645 µg
Effect of addition of ethanol on solubility [4]: greatly improved
Detected/Added *100% [4, 17]: 99 ± 11%
Nicotine Detected in Solution (by HPLC) % (w/w) [4, 17]: 0.168 ± 0.026 % (w/w)
Nicotine Detected in Solution (by HPLC) μg per 50 μl [4, 17]: 104 ± 15 μg per 50 μl
Detected/Added *100% [4, 18]: 108 ± 2%
Nicotine Detected in Solution (by HPLC) % (w/w) [4, 18]: 0.760 ± 0.013 % (w/w)
Nicotine Detected in Solution (by HPLC) μg per 50 μl [4, 18]: 421 ± 10 μg per 50 μl
